Measured values: publication PMC12579162, “Synthesized Depside Molecules Suppress the Progression of Colorectal Cancer by Binding VDAC1/PHB/MMP9 Being at the Crossroads of Stemness, Motility, Apoptosis, and Metabolism” (MedComm, 2025)

Columns and labels:
Format in all cases: cell-based
HaCaT cells = experiment: MTT cell viability, HaCaT; details: Homo sapiens, 48 h, MTT assay
Method: (§1) Cells (3 × 10^3 cells/well) were seeded on a 96‐well plate, grown overnight, and then treated with compounds at indicated concentrations for 48 h. After incubation with MTT for 4 h at 37°C, cells were lysed with 150 µL of DMSO (Sigma–Aldrich, St. Louis, USA). Absorbance was measured at 570 nm on a microplate reader with the Gen5 software (v.2.03.1; BioTek, Winooski, VT, USA).

HEK293T cells = experiment: MTT cell viability, HEK293T; details: Homo sapiens, HEK-293T; 48 h, MTT assay
Method: as §1

CaCo2 cells = experiment: MTT cell viability, CaCo2; details: Homo sapiens, Caco-2; 48 h, MTT assay
Method: as §1

MCF10A cells = experiment: MTT cell viability, MCF10A; details: Homo sapiens, MCF-10A; 48 h, MTT assay
Method: as §1

CT26 cells = experiment: MTT cell viability, CT26; details: Mus musculus, 48 h, MTT assay
Method: as §1

HCT116 cells = experiment: MTT cell viability, HCT116; details: Homo sapiens, HCT-116; 48 h, MTT assay
Method: as §1

SW620 cells = experiment: MTT cell viability, SW620; details: Homo sapiens, SW-620; 48 h, MTT assay
Method: as §1

DLD1 cells = experiment: MTT cell viability, DLD1; details: Homo sapiens, DLD-1; 48 h, MTT assay
Method: as §1

BEAS-2B cells = experiment: MTT cell viability, BEAS-2B; details: Homo sapiens, 48 h, MTT assay
Method: as §1

HT29 cells = experiment: MTT cell viability, HT29; details: Homo sapiens, HT-29; 48 h, MTT assay
Method: as §1

CSC221 cells = experiment: MTT cell viability, CSC221; details: Homo sapiens; 48 h, MTT assay
Method: as §1

spheroid formation = experiment: Spheroid formation, comparison with known MMP inhibitor (Figure S10); details: 10 µM, 10–14 days
Method: Monolayer cells were separated into single‐cell suspensions at around 70% confluence using a solution of trypsin. After that, the cells were added to N2‐supplemented DMEM/F12 that contained human basal fibroblast growth factor and human recombinant epidermal growth factor. Cells seeded at a density of 5 × 10^3 cells/well in ultra‐low attachment 24‐well plates (Corning Inc., Corning, NY, USA). After 10–14 days of culture, spheres were quantitated by inverted phase contrast microscopy. The relative sphere formation ability was calculated through the IMT iSolution software (IMT iSolution Inc., Northampton, NJ, USA) measuring the pixel intensity of the sphere area randomly in each plate.
Supplementary Figure S10. Comparison of the effects of novel VDAC1/PHB/MMP9 binding compounds and known MMP inhibitor on spheroid formation. Cells were exposed to the compound at 5 μM concentration of SB4 or SB5 and 10 μM of MMP inhibitor (GM 6001, ilomastat) for 10-14 days. The histogram represents spheroid formation, calculated as rate relative to vehicle-treated control, and represented as bar graphs. *p < 0.05; **p < 0.01; ***p < 0.001; NS, no significant difference between compared groups.

Row | IC50 (CaCo2 cells) | IC50 (CT26 cells) | IC50 (HCT116 cells) | IC50 (SW620 cells) | IC50 (DLD1 cells) | IC50 (HT29 cells) | Compound | IC50 (HaCaT cells) | IC50 (HEK293T cells) | IC50 (MCF10A cells) | IC50 (BEAS-2B cells) | IC50 (CSC221 cells) | spheroid formation (spheroid formation)
1 | 90.5 µM | 46.2 µM | 49.1 µM | 46.2 µM | 64.1 µM | 62.8 µM | COc1cc(C)c(C(=O)Oc2cc(C)c(C(=O)O)c(O)c2C)c(OC)c1C [DA, diffractaic acid, reference compound] | 84.2 µM | 121 µM | 146 µM | 54.3 µM | 133 µM | 
2 |  |  |  |  |  |  | CNC(=O)[C@H](Cc1c[nH]c2ccccc12)NC(=O)[C@@H](CC(=O)NO)CC(C)C [GM 6001, ilomastat] |  |  |  |  |  | no effect on inhibition of spheroid formation
